Data: US20240041838A1, “METHODS AND COMPOSITIONS FOR INHIBITION OF NEUTROPHIL RECRUITMENT IN MYCOCARDIAL ISCHEMIA-REPERFUSION INJURY” (University of Connecticut, priority 2022, published 2024)

Legend:
[1] = system: LPS-induced systemic inflammation / acute lung injury; conditions: reported, cited from earlier work
[2] = system: Rac-1 activation in HL60-CXCR2 or HL60 cells; test: Rac-1-GTP pull-down and western blot in HL60 / HL60-CXCR2 cells; format: cell-based; conditions: 10 μM, RT 1 hour
Experimental: The HL60 cells and CXCR2-expressing HL60 cells (HL60-CXCR2)(50) were gifts from Dr. Orion D. Weiner at the University of California San Francisco and Dr. Ann Richmond at the Vanderbilt University School of Medicine, respectively. HL60-CXCR2 cells were selected with G418 ([…]) to maintain CXCR2 expression. Cells were maintained in culture medium (RPMI-1640, 10% FBS, 100 μg·mL^−1 penicillin, 100 μg·mL^−1 streptomycin, and 250 ng·mL^−1 amphotericin B) at 37° C. and 5% CO2. In most experiments, cells were differentiated with 1.3% DMSO for 7 days before assays. Cells were checked monthly for mycoplasma infection using the e-Myco plus Mycoplasma PCR Detection Kit.
After washes, cells were resuspended in RPMI-1640 without phenol red (10^7 cells·mL^−1) and incubated with or without stimulators (100 nM fMLP for HL60, 1 μg·mL^−1 IL-8 for HL60-CXCR2) at RT for 1 minute. Cells were lysed by 1:1 addition of 2× Triton X-100 lysis buffer (final concentration: 1% Triton X-100, 50 mM HEPES pH 7.0, 150 mM NaCl, 10% glycerol, 1.5 mM MgCl2, 1 mM EGTA, 1 mM sodium orthovanadate, 1 mM phenylmethylsulfonyl fluoride, plus protease inhibitor mixture—one Pierce protease inhibitor mini-tablet per 5 mL 2× buffer) on ice for 5 minutes. After centrifuging at 16,000×g, 4° C. for 8 minutes, supernatants were saved as protein samples.

[3] = system: Rac-1 activation in human neutrophils; test: Rac-1-GTP pull-down and western blot in human neutrophils; format: cell-based; conditions: 10 μM, RT 1 hour, IL-8 1 μg·mL^−1, increase about 60% without drug

## CC(C)(C)C(=O)/C(=C\c1cccc([N+](=O)[O-])c1)n1cncn1 [Nexinhib20, 4,4-dimethyl-1-(3-nitrophenyl)-2-(1H-1,2,4-triazol-1-yl)-1-penten-3-one]
[1]; LPS-induced systemic inflammation model
  recruitment of neutrophils to the liver and kidney: inhibit recruitment of neutrophils
[1]; acute LPS-induced lung injury mouse model
  recruitment of neutrophils to lung lumen and parenchyma: inhibit recruitment of neutrophils
[2]; HL60-CXCR2 cells, IL-8 1 μg·mL^−1, 1 minute, increase about 80% without drug
  IL-8-induced increase of Rac-1-GTP: eliminated these increases
[2]; HL60 cells, fMLP 100 nM, 1 minute, increase about 50% without drug
  fMLP-induced increase of Rac-1-GTP: eliminated these increases
[3]
  IL-8-induced increase of Rac-1-GTP: eliminated these increases
